This note sets out measurements from ChEMBL document CHEMBL1154503, “Calmodulin inhibitors from the fungus Emericella sp” (Bioorg Med Chem, 2009).

pIC50, pKi: −log10 of the molar value.

In assay [1] the target is T1, Calmodulin-1 (Homo sapiens, UniProt P0DP23). The assay is described as follows: Inhibition of recombinant calmodulin mediated bovine brain PDE1 activation assessed as effect on inorganic phosphate release by spectrophotometry.
Assay [2] has as its target T1, Calmodulin-1. The experiment in a line: Inhibition of recombinant calmodulin mediated bovine brain PDE1 activation assessed as effect on inorganic phosphate release using variable calmodulin level by spectrophotometry.

A word on the pIC50: it is the IC50 on a negative log10 scale, so that one unit is a factor of ten. As for `C=C(C)[C@H]1COc2c(C)cc3oc4c(C[C@H](Cl)C(C)(C)O)ccc(O)c4c(=O)c3c2[C@@H]1O`, the pIC50 at Calmodulin-1 [1] was 5.02.

One may read the pKi as the negative decadic logarithm of the Ki, by convention in mol/L. On to `C=C(C)[C@H]1COc2c(C)cc3oc4c([C@H](OC)[C@@H]5OC5(C)C)ccc(O)c4c(=O)c3c2[C@@H]1O`, for which the pIC50 on Calmodulin-1 [1] was 5.26. In addition, the pKi on Calmodulin-1 [2] was 4.60.

On to `C=C(C)[C@H]1COc2c(C)cc3oc4c(CC=C(C)C)ccc(O)c4c(=O)c3c2[C@@H]1O` [SHAMIXANTHONE], for which the pIC50 at Calmodulin-1 [1] is 4.54.

Regarding `C=C(C)[C@H]1COc2c(C)cc3oc4c(C[C@H](O)C(C)(C)O)ccc(O)c4c(=O)c3c2[C@@H]1O` [TAJIXANTHONE HYDRATE], the pIC50 at Calmodulin-1 [1] is 5.25. For the same compound, the pKi on Calmodulin-1 [2] is 4.86.
